Results on four compounds are retold here after ChEMBL document CHEMBL1126109 (J Med Chem, 1992).

For orientation: EC50 means the concentration that produces a half-maximal response. For orientation: IC50 means the point on the concentration scale where inhibition reaches its midpoint. A low value points to higher potency.

What all share (assay type): protein-complex assay
Test [1] addresses Glutamate NMDA receptor. Description: Compound was evaluated for the inhibition of [3H]MK-801 binding at N-methyl-D-aspartate glutamate receptor.
Test [2] deals with Glutamate NMDA receptor. The test is described as follows: Compound was evaluated for the inhibition of [3H]-CGS-19,755 binding at N-methyl-D-aspartate glutamate receptor.
The target of test [3] is Glutamate NMDA receptor. The test is described as follows: Compound was evaluated for the inhibition of [3H]norepinephrine binding at N-methyl-D-aspartate glutamate receptor.

Take `N[C@]1(C(=O)O)C[C@@H](C(=O)O)C1`: the results for the EC50 at Glutamate NMDA receptor [1] and on Glutamate NMDA receptor [3] were 180 nM and 16500 nM, respectively. At Glutamate NMDA receptor [2], this compound came in with an IC50 of 163 nM.
Taken in the same sequence, the figures for `CN[C@H](CC(=O)O)C(=O)O` [N-METHYL-D-ASPARTIC ACID (NMDA)] were 6860 nM, 75000 nM and 4150 nM.
Consider `N[C@@H](CC(=O)O)C(=O)O` [ASPARTIC ACID], for which, on Glutamate NMDA receptor [2], the IC50 stood at 1640 nM.
Consider `NC(C(=O)O)c1nnn[nH]1` (racemic), for which the figures for the EC50 at Glutamate NMDA receptor [1] and on Glutamate NMDA receptor [3] were 70 nM and 2030 nM, respectively. On Glutamate NMDA receptor [2], this compound gave a half-maximal inhibitory concentration (IC50) of 98 nM.
